# According to PMC4280898, “Diazido Mixed-Amine Platinum(IV) Anticancer Complexes Activatable by Visible-Light Form Novel DNA Adducts” (Chemistry (Weinheim an Der Bergstrasse, Germany), 2013):
# Like-named read-outs stand apart in the source and are kept apart here.
# What was measured:
# [1] = tested on: A2780 cells; conditions: cited from earlier work
# [2] = tested on: A2780cis cells; conditions: cited from earlier work; for Resistance factor: A2780cis vs A2780
# [3] = tested on: A2780 cells; test: SRB proliferation assay for non-light-sensitive complexes, A2780; type: cell-based, human; conditions: ambient light, 24 h exposure, 72 h recovery
# Protocol: (§1) Cytotoxicity of platinum(II) precursors: To investigate the relationship between the Pt^IV diazidodihydroxido complexes and their Pt^II dichlorido analogues trans-[PtCl2(Am1)(Am2)] (where Am=amine), the cytotoxicities of complexes trans-[PtCl2(MA)(Py)] (5) and trans-[PtCl2(MA)(Tz)] (6) towards A2780 and its cisplatin resistant sub-line A2780cis were determined. The toxicity was not photoinduced, as the complexes are not photoactive. Complexes 5 and 6 are highly cytotoxic towards A2780 and A2780cis cells compared to the reported trans-Pt^II compounds.[18]–[22] Complex 5 is about three-times more cytotoxic than complex 6 towards A2780 cells. […]
# (§2) Cell Culture and Proliferation Assay for Non-light-sensitive Complexes
# (§3) The A2780 ovarian cell line was obtained from the ECACC (European Collection of Animal Cell Culture, Salisbury, United Kingdom). The cells were maintained in RPMI 1640 media, which was supplemented with 10% foetal calf serum, 1% L-glutamine, and 1% penicillin/streptomycin. All cells were grown at 310 K in an humidified atmosphere containing 5% CO2. Stock solutions of the Pt complexes were freshly prepared in DMSO to assist dissolution and then diluted into saline and medium (maximum final concentration of DMSO 1% and saline 6%). After plating 5000 A2780 cells per well on day 1, Pt complexes were added to the cancer cells on day 3 at concentrations ranging from 0.01 to 100 µM, depending on the preliminary activity data obtained in screening assays. Cells were exposed to the complexes for 24 h, washed with PBS, supplied with fresh medium, and allowed to grow for three doubling times (72 h), and then the protein content (proportional to cell survival) was measured using the sulforhodamine B (SRB) assay.[7] The standard errors are based on two independent experiments of three replicates each.[8]
# [4] = tested on: A2780cis cells; test: SRB proliferation assay for non-light-sensitive complexes, A2780cis; type: cell-based, human
# Protocol: as §1, §2, §3
# [5] = tested on: A2780 cells; test: Constant challenge proliferation (MTT) assay, A2780; type: cell-based, human; conditions: conventional constant challenge proliferation assay
# From the text: (§4) It should be noted that the phototoxicity assay is not a proliferation assay.
# [6] = tested on: A2780cis cells; test: Constant challenge proliferation (MTT) assay, A2780cis; type: cell-based, human; conditions: conventional constant challenge proliferation assay
# From the text: as §4
# [7] = molecular target: T1, HMGB1 protein (Homo sapiens, UniProt P09429); test: HMGB1 recognition of platinated 50 bp duplex, gel mobility shift assay; type: binding; conditions: 50 bp duplex modified in the dark
# T1 sequence (P09429 1-215): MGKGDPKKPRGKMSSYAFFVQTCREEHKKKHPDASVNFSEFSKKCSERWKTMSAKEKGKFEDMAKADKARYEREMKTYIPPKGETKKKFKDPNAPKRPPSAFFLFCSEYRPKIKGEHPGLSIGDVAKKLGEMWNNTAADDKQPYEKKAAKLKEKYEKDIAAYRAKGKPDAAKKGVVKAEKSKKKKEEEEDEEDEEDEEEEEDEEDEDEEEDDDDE
# From the text: HMGB1 protein recognition: The interactions of high mobility group protein B1 (HMGB1) with a 50 bp duplex DNA adducts formed by 1 or 2 under irradiation conditions and 5 or 6 in the dark were investigated using a gel mobility shift assay.
# Figure 13 Recognition by HMGB1 protein of platinated DNA. Affinity of full-length HMGB1 to non-modified (control) DNA (lanes 1 and 2) or DNA modified by cisplatin (7) in the dark (lanes 3 and 4), 5 in the dark (lanes 5 and 6), 6 in the dark (lanes 7 and 8), photoactivated 1 (420 nm light, lanes 9 and 10) or photoactivated 2 (420 nm light, lanes 11 and 12). Lanes 1, 3, 5, 7, 9, 11, no protein added; lanes 2, 4, 6, 8, 10, 12, 700 ng HMGB1 added.
# [8] = tested on: calf thymus DNA; conditions: in the dark; cited from earlier work
# [9] = tested on: calf thymus DNA; conditions: in the dark; ref 32b; cited from earlier work
# [10] = tested on: pSP73KB plasmid DNA; conditions: in the dark; ref 32b; cited from earlier work
# [11] = tested on: pUC19 plasmid DNA; conditions: in the dark; cited from earlier work
# [12] = tested on: 212 bp NdeI–HpaI fragment of pSP73KB DNA; conditions: in the dark, cited from earlier work
# [13] = design: method as in earlier work; conditions: 310 K; cited from earlier work
# [14] = tested on: DNA; design: method as in PMID 1827334; conditions: ref 3a; cited from earlier work
# [15] = tested on: 212 bp NdeI–HpaI fragment of pSP73KB DNA; test: Transcription mapping of DNA adducts (T7 RNA polymerase); type: biochemical; conditions: in the dark; rb=0.01
# Protocol: Sequence preference of DNA adducts: Transcription mapping experiments were performed to determine the DNA binding sites for Pt complexes. The experiments were carried out using a linear 212 bp DNA fragment (sequence in Figure 9 B), randomly modified by transplatin (8), cisplatin (7), 5 or 6 in the dark or by 1 and 2 photoactivated with blue light (420 nm) at rb=0.01 (rb is defined as the number of the molecules of platinum complex coordinated per nucleotide residue), for RNA synthesis by T7 RNA polymerase (Figure 9 A, lanes 8, 7, 5, 6, 1 and 2, respectively). RNA synthesis on the template modified by the platinum complexes produced fragments of defined sizes (Figure 9 A), which indicate the sites where RNA synthesis was prematurely terminated. It should be noted that RNA synthesis by T7 RNA polymerase is prematurely terminated only due to the platinum adducts on the template strand.[23] […] The ability to bind to A and C sites is consistent with the result from AMP and CMP binding experiments (Figure S18 in the Supporting Information).
# Figure 9 Inhibition of RNA synthesis by T7 RNA polymerase on the NdeI–HpaI fragment of pSP73KB plasmid DNA modified by complexes 5 or 6, cisplatin (7) or transplatin (8) in the dark, or with photoactivated 1 or 2 (420 nm light). A) Autoradiogram of a polyacrylamide (6 %)/urea (8 M) sequencing gel. […]
# assayed by differential pulse polarography for free, unbound platinum.[16] The amount of platinum bound to DNA was calculated by subtracting the amount of free (unbound) platinum from the total amount of platinum present in the reaction. […]
# This fragment contained T7 RNA polymerase promoter (in the upper strand close to its 3'-end). […] The fragments produced in RNA synthesis on the template modified by the platinum complexes were analysed by a 6% polyacrylamide/8M urea sequencing gel.
# Quantification of DNA adducts […]
# Platinum associated with DNA was assessed by flameless atomic absorption […]
# Quantification of DNA interstrand cross-links […]
# [16] = molecular target: T1, HMGB1 protein; conditions: in the dark; footnote a: taken from literature; cited from earlier work
compound,measurement,setting,value
CC(C)[NH2+][Pt-2]([Cl])([Cl])[n+]1ccn(C)c1,IC50,[1],21 ± 0.6 µM
same,Resistance factor,[2],0.66
same,IC50,[2],14 ± 3.5 µM
"N.N.[Cl][Pt][Cl] [Complex 7, cis-[PtCl2(NH3)2]]",IC50,[3],1.5 ± 0.3 µM
same,Resistance factor,"[4]; A2780cis vs A2780, SRB assay",7.0
same,IC50,"[4]; ambient light, 24 h exposure, 72 h recovery, SRB",10.5 ± 0.3 µM
same,IC50,[5],0.5 µM
same,IC50,[6],11 µM
same,HMGB1 protein recognition,[7],strongly bound by HMGB1
same,Pt bound after 24 h,[8],100[36] %
same,Bifunctional adducts after 24 h,[9],97–99[32b] %
same,Interstrand cross-link,[10],6[32b] %
same,Unwinding angle,[11],13[25] °
same,Sequence specificity,"[12]; ref 30c, 37","GG, (GA)[30c], [37]"
same,Time for binding to 5′-GMP to reach 50 %,[13],7 to 8 h
same,"d(ApG) 1,2-intrastrand cross-links, share of all adducts",[14],20–25%
same,"d(GpG) 1,2-intrastrand cross-links, share of all adducts",[14],60–65%
"N.N.[Cl][Pt+2][Cl] [Complex 8, transplatin]",Sequence specificity,[15],stop sites mainly at G and C
same,Pt bound after 24 h,[8],100[36] %
same,Bifunctional adducts after 24 h,[9],50[32b] %
same,Interstrand cross-link,[10],12[32b] %
same,Unwinding angle,[11],9[25] °
same,Sequence specificity,[12]; ref 32b,"G, C[32b]"
same,HMGB1 protein recognition,[16],no ^[a]
same,IC50,[1],> 200 µM
CCC(C)C[NH][Pt]([Cl])[Cl].N (stereo not drawn) [trans-[PtCl2(NH3)(2-methyl-butylamine)]],IC50,[1],1.7 µM
same,Resistance factor,[2],5.5
same,IC50,[2],9.3 µM
Cc1cc[n+]([Pt@SP2-2]([NH3+])([Cl])[Cl])cc1 [trans-[PtCl2(NH3)(4-picoline)]],IC50,[1],7 ± 1 µM
same,Resistance factor,[2],11
same,IC50,[2],80 ± 5 µM
COC(C)=N.N.[Cl][Pt][Cl] [trans-[PtCl2(NH3)(HN=C(OCH3)CH3)]],IC50,[1],1.3 ± 0.3 µM
same,Resistance factor,[2],5.4
same,IC50,[2],7 ± 1.3 µM
C1CNCCN1.N.[Cl][Pt][Cl] [trans-[PtCl2(NH3)(piperazine)]],IC50,[1],5 ± 1 µM
same,Resistance factor,[2],8.8
same,IC50,[2],44 ± 2 µM
C1CCNCC1.N.[Cl][Pt][Cl] [trans-[PtCl2(NH3)(piperidine)]],IC50,[1],5 ± 0.7 µM
same,Resistance factor,[2],4.0
same,IC50,[2],20 ± 2 µM
CCC(C)N.N.[Cl][Pt][Cl] (stereo not drawn) [trans-[PtCl2(NH3)(sec-butylamine)]],IC50,[1],2.1 µM
same,Resistance factor,[2],7.4
same,IC50,[2],15.5 µM
